Results reported in patent US10562891B2, “Quinazolinones as PARP14 inhibitors” (Ribon Therapeutics Inc., priority 2017, dated 2020).
Structures can show the parent of a compound that is named as a salt.

target: catalytic domain of human PARP14 (Homo sapiens (Human), UniProt Q460N5); assay: Enzymatic assay for inhibition of PARP14 (DELFIA, auto-modification with biotin-NAD); assay type: biochemical; conditions: auto-modification of PARP14 by biotin-NAD, 50 nM PARP14, 3 μM biotin-NAD
Summary of the method: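 DELFIA auto-modification read-out: europium-streptavidin bound to biotin-NAD incorporated onto nickel-captured His-TEV PARP14 catalytic domain. Compound preincubated 30 min, then 50 nM enzyme with 3 μM biotin-NAD reacted 3 h, all at 25 °C, pH 8, then NAD quench. Percent inhibition normalized to rucaparib/DMSO wells, fitted (4- or 3-parameter) for IC50.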

Chain of catalytic domain of human PARP14 (Q460N5 1611-1801): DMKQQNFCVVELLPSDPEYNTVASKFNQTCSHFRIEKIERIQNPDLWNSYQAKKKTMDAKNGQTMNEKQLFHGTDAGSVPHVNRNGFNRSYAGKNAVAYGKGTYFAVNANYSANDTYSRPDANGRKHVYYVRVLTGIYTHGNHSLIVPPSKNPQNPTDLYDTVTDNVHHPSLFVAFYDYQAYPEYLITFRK

Compound	IC50 [nM]
O=c1[nH]c(CS[C@H]2CC[C@H](O)CC2)nc2cc(NCC3CC3)cc(F)c12 [Example 271, 7-((Cyclopropylmethyl)amino)-5-fluoro-2-(((trans-4-hydroxycyclohexyl)thio)methyl)quinazolin-4(3H)-one]	< 1000
O=c1[nH]c(CSC2CCNCC2)nc2cc(NCC3CCOCC3)cc(F)c12 [Example 272, 5-Fluoro-2-((piperidin-4-ylthio)methyl)-7-(((tetrahydro-2H-pyran-4-yl)methyl)amino)quinazolin-4(3H)-one]	1000 to 10000
O=c1[nH]c(CSC2CCN(C3CS(=O)(=O)C3)CC2)nc2cc(NC3CCCC3)cc(F)c12 [Example 273, 7-(Cyclopentylamino)-2-(((1-(1,1-dioxidothietan-3-yl)piperidin-4-yl)thio)methyl)-5-fluoroquinazolin-4(3H)-one]	< 1000
O=c1[nH]c(CSC2CCN(C3COC3)CC2)nc2cc(NCC3CC3)cc(F)c12 [Example 274, 7-((Cyclopropylmethyl)amino)-5-fluoro-2-(((1-(oxetan-3-yl)piperidin-4-yl)thio)methyl)quinazolin-4(3H)-one]	< 1000
O=c1[nH]c(CSC2CCNCC2)nc2cc(OCC3CC3)ccc12 [Example 275, 7-(Cyclopropylmethoxy)-2-((piperidin-4-ylthio)methyl)quinazolin-4(3H)-one]	< 1000
CS(=O)(=O)CCN1CCC(SCc2nc3cc(NC4CCCC4)cc(F)c3c(=O)[nH]2)CC1 [Example 276, 7-(Cyclopentylamino)-5-fluoro-2-(((1-(2-(methylsulfonyl)ethyl)piperidin-4-yl)thio)methyl)quinazolin-4(3H)-one]	< 1000
O=c1[nH]c(CSC2CCNCC2)nc2cc(NCCN3CCOCC3)cc(F)c12 [Example 277, 5-Fluoro-7-((2-morpholinoethyl)amino)-2-((piperidin-4-ylthio)methyl)quinazolin-4(3H)-one dihydrochloride]	< 1000
O=c1[nH]c(CSC2CCNCC2)nc2cc(OCC3CC3)cc(F)c12 [Example 278, 7-(Cyclopropylmethoxy)-5-fluoro-2-((piperidin-4-ylthio)methyl)quinazolin-4(3H)-one]	< 1000
CC(C)(O)C(=O)N1CCC(SCc2nc3cc(NC4CCCC4)cc(F)c3c(=O)[nH]2)CC1 [Example 279, 7-(Cyclopentylamino)-5-fluoro-2-(((1-(2-hydroxy-2-methylpropanoyl)piperidin-4-yl)thio)methyl)quinazolin-4(3H)-one]	< 1000
O=c1[nH]c(CSC2CCNCC2)nc2cc(OCC3CCC3)cc(F)c12 [Example 280, 7-(Cyclobutylmethoxy)-5-fluoro-2-((piperidin-4-ylthio)methyl)quinazolin-4(3H)-one 2,2,2-trifluoroacetate]	< 1000
O=c1[nH]c(CSC2CCN(Cc3ccccn3)CC2)nc2cc(NC3CCCC3)cc(F)c12 [Example 281, 7-(Cyclopentylamino)-5-fluoro-2-(((1-(pyridin-2-ylmethyl)piperidin-4-yl)thio)methyl)quinazolin-4(3H)-one]	< 1000
O=c1[nH]c(CSC2CCNCC2)nc2cc(OCC3CCCC3)cc(F)c12 [Example 282, 7-(Cyclopentylmethoxy)-5-fluoro-2-((piperidin-4-ylthio)methyl)quinazolin-4(3H)-one 2,2,2-trifluoroacetate]	< 1000
CNC(=O)CN1CCC(SCc2nc3cc(NC4CCCC4)cc(F)c3c(=O)[nH]2)CC1 [Example 283, 2-(4-(((7-(Cyclopentylamino)-5-fluoro-4-oxo-3,4-dihydroquinazolin-2-yl)methyl)thio)piperidin-1-yl)-N-methylacetamide hydrochloride]	< 1000
Cc1cc(NCC2CC2(F)F)cc2nc(CSC3CCNCC3)[nH]c(=O)c12 (centres unmarked) [Example 284, 7-(((2,2-Difluorocyclopropyl)methyl)amino)-5-methyl-2-((piperidin-4-ylthio)methyl)quinazolin-4(3H)-one hydrochloride]	< 1000
N#CCN1CCC(SCc2nc3cc(NC4CCCC4)cc(F)c3c(=O)[nH]2)CC1 [Example 285, 2-(4-(((7-(Cyclopentylamino)-5-fluoro-4-oxo-3,4-dihydroquinazolin-2-yl)methyl)thio)piperidin-1-yl)acetonitrile]	< 1000
NC(=O)C[C@H]1CC[C@H](SCc2nc3cc(NC4CCCC4)cc(F)c3c(=O)[nH]2)CC1 [Example 286, 2-(Trans-4-(((7-(cyclopentylamino)-5-fluoro-4-oxo-3,4-dihydroquinazolin-2-yl)methyl)thio)cyclohexyl)acetamide]	< 1000
O=c1[nH]c(CSC2CCOCC2)nc2cc(NCCN3CCOCC3)cc(F)c12 [Example 287, 5-Fluoro-7-((2-morpholinoethyl)amino)-2-(((tetrahydro-2H-pyran-4-yl)thio)methyl)quinazolin-4(3H)-one]	< 1000
O=c1[nH]c(CSC2CCOCC2)nc2cc(NC3CCN(CC(F)(F)F)CC3)cc(F)c12 [Example 288, 5-Fluoro-2-(((tetrahydro-2H-pyran-4-yl)thio)methyl)-7-((1-(2,2,2-trifluoroethyl)piperidin-4-yl)amino)quinazolin-4(3H)-one]	< 1000

Compound	IC50 [nM]
O=c1[nH]c(CSC2CCNCC2)nc2cc(NCC3CCC3)c(F)cc12 [Example 289, 7-((Cyclobutylmethyl)amino)-6-fluoro-2-((piperidin-4-ylthio)methyl)quinazolin-4(3H)-one hydrochloride]	1000 to 10000
O=c1[nH]c(CSC2CCOCC2)nc2cc(NC3CCCCC3)c(F)cc12 [Example 290, 7-(Cyclohexylamino)-6-fluoro-2-(((tetrahydro-2H-pyran-4-yl)thio)methyl)quinazolin-4(3H)-one]	< 1000
O=c1[nH]c(CSC2CCOCC2)nc2cc(OCC3CC3)cc(F)c12 [Example 291, 7-(Cyclopropylmethoxy)-5-fluoro-2-(((tetrahydro-2H-pyran-4-yl)thio)methyl)quinazolin-4(3H)-one]	< 1000
O=c1[nH]c(CSC2CCOCC2)nc2cc(NCC3CC3)c(F)cc12 [Example 292, 7-((Cyclopropylmethyl)amino)-6-fluoro-2-(((tetrahydro-2H-pyran-4-yl)thio)methyl)quinazolin-4(3H)-one]	< 1000
O=c1[nH]c(CS[C@H]2CC[C@H](O)CC2)nc2cc(NC3CCCC3)c(F)cc12 [Example 293, 7-(Cyclopentylamino)-6-fluoro-2-(((trans-4-hydroxycyclohexyl)thio)methyl)quinazolin-4(3H)-one]	< 1000
O=c1[nH]c(CSC2CCOCC2)nc2cc(NC3CCCC3)c(F)c(F)c12 [Example 294, 7-(Cyclopentylamino)-5,6-difluoro-2-(((tetrahydro-2H-pyran-4-yl)thio)methyl)quinazolin-4(3H)-one]	< 1000
O=c1[nH]c(CSC2CCS(=O)(=O)CC2)nc2cc(NCC3CCC3)c(F)cc12 [Example 296, 7-((Cyclobutylmethyl)amino)-2-(((1,1-dioxidotetrahydro-2H-thiopyran-4-yl)thio)methyl)-6-fluoroquinazolin-4(3H)-one]	< 1000
O=c1[nH]c(CSC2CCOCC2)nc2cc(OCC3CCN(CCC(F)(F)F)CC3)cc(F)c12 [Example 298, 5-Fluoro-2-(((tetrahydro-2H-pyran-4-yl)thio)methyl)-7-((1-(3,3,3-trifluoropropyl)piperidin-4-yl)methoxy)quinazolin-4(3H)-one]	< 1000
CC(F)(F)CN1CCC(COc2cc(F)c3c(=O)[nH]c(CSC4CCOCC4)nc3c2)CC1 [Example 299, 7-((1-(2,2-Difluoropropyl)piperidin-4-yl)methoxy)-5-fluoro-2-(((tetrahydro-2H-pyran-4-yl)thio)methyl)quinazolin-4(3H)-one]	< 1000
O=c1[nH]c(CSC2CCOCC2)nc2cc(OCC3CCN(CC(F)F)CC3)cc(F)c12 [Example 300, 7-((1-(2,2-Difluoroethyl)piperidin-4-yl)methoxy)-5-fluoro-2-(((tetrahydro-2H-pyran-4-yl)thio)methyl)quinazolin-4(3H)-one]	< 1000
O=c1[nH]c(CSC2CCOCC2)nc2cc(OCC3CCN(C4COC4)CC3)cc(F)c12 [Example 301, 5-Fluoro-7-((1-(oxetan-3-yl)piperidin-4-yl)methoxy)-2-(((tetrahydro-2H-pyran-4-yl)thio)methyl)quinazolin-4(3H)-one]	< 1000
O=c1[nH]c(CSC2CCOCC2)nc2cc(NC3CCN(C4COC4)CC3)cc(F)c12 [Example 302, 5-Fluoro-7-((1-(oxetan-3-yl)piperidin-4-yl)amino)-2-(((tetrahydro-2H-pyran-4-yl)thio)methyl)quinazolin-4(3H)-one]	< 1000
O=c1[nH]c(CSC2CCS(=O)(=O)CC2)nc2cc(OCC3CCC3)cc(F)c12 [Example 304, 7-(cyclobutylmethoxy)-2-(((1,1-dioxidotetrahydro-2H-thiopyran-4-yl)thio)methyl)-5-fluoroquinazolin-4(3H)-one]	< 1000
CC(C)COc1cc(F)c2c(=O)[nH]c(CSC3CCOCC3)nc2c1 [Example 306, 5-Fluoro-7-isobutoxy-2-(((tetrahydro-2H-pyran-4-yl)thio)methyl)quinazolin-4(3H)-one]	1000 to 10000
O=C(CO)N1CCC(SCc2nc3cc(OCC4CCC4)cc(F)c3c(=O)[nH]2)CC1 [Example 307, 7-(Cyclobutylmethoxy)-5-fluoro-2-(((1-(2-hydroxyacetyl)piperidin-4-yl)thio)methyl)quinazolin-4(3H)-one]	< 1000
CC1(C)CC(SCc2nc3cc(OCC4CCC4)cc(F)c3c(=O)[nH]2)CCO1 (centres unmarked) [Example 308, 7-(Cyclobutylmethoxy)-2-(((2,2-dimethyltetrahydro-2H-pyran-4-yl)thio)methyl)-5-fluoroquinazolin-4(3H)-one]	< 1000
O=c1[nH]c(CSC2CCCCC2)nc2cc(OCC3CCC3)cc(F)c12 [Example 309, 7-(Cyclobutylmethoxy)-2-((cyclohexylthio)methyl)-5-fluoroquinazolin-4(3H)-one]	< 1000
